Reference: publication PMC3335845, “In-Vivo Biodistribution and Safety of ^99mTc-LLP2A-HYNIC in Canine Non-Hodgkin Lymphoma” (PLoS ONE, 2012)

Experiments:
[1] = parameters: method as in PMID 16767086; conditions: human plasma; cited from earlier work
activated α4β1 integrin = tested on: activated α4β1 integrin; parameters: method as in PMID 9479864; conditions: cited from earlier work
canine lymphoma = tested on: canine lymphoma; parameters: method as in PMID 16767086, PMID 19289419, PMID 22177114; conditions: in vitro, canine cell lines and tissue samples; less than in human cell lines and xenografts; cited from earlier work
normal lymphocytes = tested on: normal lymphocytes; parameters: method as in PMID 16767086, PMID 22177114; conditions: increases with activation; cited from earlier work
[2] = Whole body activity by handheld monitor at 1 m from the dog; type: in vivo, dogs
Text: All dogs were held overnight in a protected area with institutionally approved radiation safety protocols. Dogs were released from the facility after whole body radiation levels were less than 0.5 mR/hr at the skin surface and less than 0.05 mR/hr at 1 m.

[3] = Organ uptake by gamma camera scintigraphy (organ:muscle ratio and percent injected dose); type: in vivo, dogs
Description: All dogs were imaged with a Gamma camera (Technicare Omega 500, Solon, Ohio, or IS2, Ottawa, Ontario). Images were obtained of the whole body in overlapping segments, in right lateral, left lateral, and sternal recumbency. Images were obtained to 200,000 counts, with a 256×256 bit matrix and 16-bit depth. A camera standard of 200 uCi in 10 mL of water was included in each image to ensure stable measurements over the scan period. Camera sensitivity was determined by placing the camera standard 30 cm from the detector and scanning for 1 minute. This calibration factor was used to convert individual organ emission counts to mCi.
Chemotherapy consisted of prednisone, vincristine, cyclophosphamide, and L-asparaginase. Two dogs had whole body computed tomography (CT) performed.
ROIs were drawn on the 2 hour images and duplicated for the opposite lateral projection and subsequent time points, and adjusted for altered patient position. […]
Organs that were clearly delineated on conjugate projections (liver, GI, bone marrow, lung) were measured using the geometric mean method, and smaller or peripherally located organs (kidney, mandibular lymph nodes, salivary gland) were measured using the effective point source method. Depth for depth correction was measured on orthogonal images. Lung activity was measured using an ROI in a posterior region and normalized to the total pixels of the lung. […] […] Camera sensitivity was measured using the camera standard. Percent injected dose and organ:muscle ratio were calculated for each imaging study at each time point. Imaging results are presented in graphical format as percent injected dose for each organ evaluated, as well as organ:muscle ratios.

[4] = Safety monitoring in dogs (vital signs, blood pressure, complete blood counts, serum biochemistry); type: in vivo; conditions: normal dogs and those with NHL
Description: All 3 dogs were mixed breed dogs and after physical examination were clinically normal. […] Images of the whole body in orthogonal planes were acquired at 2 hours, 4 hours, and 6 hours after injection. Complete blood counts and serum biochemistry were performed before and after imaging.

Compound | resistance to proteases [1] | affinity to activated α4β1 on lymphoma cells (activated α4β1 integrin) | affinity to canine lymphoma (canine lymphoma) | affinity to normal lymphocytes (normal lymphocytes) | mean whole body activity ([2]; 5 minutes post-injection) | whole body activity, range ([2]; 5 minutes post-injection) | mean whole body activity ([2]; 360 min) | whole body activity ([2]; 24 hours) | route of elimination ([3]; dogs) | organ:muscle ratio ([3]; kidney affected with lymphoma (dog L1), highest ratio of tumor tissues) | organ:muscle ratio ([3]; unaffected kidney in the same dog (L1)) | overall safety [4]
N-[[4-[[[(2-ethylphenyl)amino]carbonyl]amino]phenyl]acetyl]-N ^ε-6-[(2E)-1-oxo-3-(3-pyridinyl-2-propenyl)]-L-lysyl-L-2-aminohexanedioyl-(1-amino-1-cyclohexane)carboxamide [LLP2A] | resistant to proteases in human plasma | high affinity | good affinity | mild affinity | – | – | – | – | – | – | – | –
Cc1ccccc1NC(=O)Nc1ccc(CC(=O)N[C@@H](CCCCNC(=O)/C=C/c2cccnc2)C(=O)N[C@@H](CCCC(=O)O)C(=O)NC2(C(=O)NCCOCCOCCNC(=O)CCC(=O)NCCOCCOCCNC(=O)CCC(=O)N[C@@H](CCCCNC(=O)c3ccc(NN)nc3)C(N)=O)CCCCC2)cc1 [^99mTc-LLP2A-HYNIC, metal not drawn] | – | – | – | – | 0.5 mR/h | 0.2–0.8 mR/h | 0.13 mR/h | 0.04 mR/h | mainly eliminated through the kidneys | 7.00 | 5.27 | safe
